Assay in all cases: KINOMEscan
Assay type in all cases: binding
Holding throughout (details): read-out: % control activity remaining

Experiment [1] concerns the target T1, DMPK2 (Homo sapiens, UniProt Q6DT37).
T1 construct: purchased Eurofins DiscoverX KINOMEscan

The target of experiment [2] is T2, LZK (Homo sapiens, UniProt O43283).
T2 construct: purchased Eurofins DiscoverX KINOMEscan
T2 sequence (O43283 1-966): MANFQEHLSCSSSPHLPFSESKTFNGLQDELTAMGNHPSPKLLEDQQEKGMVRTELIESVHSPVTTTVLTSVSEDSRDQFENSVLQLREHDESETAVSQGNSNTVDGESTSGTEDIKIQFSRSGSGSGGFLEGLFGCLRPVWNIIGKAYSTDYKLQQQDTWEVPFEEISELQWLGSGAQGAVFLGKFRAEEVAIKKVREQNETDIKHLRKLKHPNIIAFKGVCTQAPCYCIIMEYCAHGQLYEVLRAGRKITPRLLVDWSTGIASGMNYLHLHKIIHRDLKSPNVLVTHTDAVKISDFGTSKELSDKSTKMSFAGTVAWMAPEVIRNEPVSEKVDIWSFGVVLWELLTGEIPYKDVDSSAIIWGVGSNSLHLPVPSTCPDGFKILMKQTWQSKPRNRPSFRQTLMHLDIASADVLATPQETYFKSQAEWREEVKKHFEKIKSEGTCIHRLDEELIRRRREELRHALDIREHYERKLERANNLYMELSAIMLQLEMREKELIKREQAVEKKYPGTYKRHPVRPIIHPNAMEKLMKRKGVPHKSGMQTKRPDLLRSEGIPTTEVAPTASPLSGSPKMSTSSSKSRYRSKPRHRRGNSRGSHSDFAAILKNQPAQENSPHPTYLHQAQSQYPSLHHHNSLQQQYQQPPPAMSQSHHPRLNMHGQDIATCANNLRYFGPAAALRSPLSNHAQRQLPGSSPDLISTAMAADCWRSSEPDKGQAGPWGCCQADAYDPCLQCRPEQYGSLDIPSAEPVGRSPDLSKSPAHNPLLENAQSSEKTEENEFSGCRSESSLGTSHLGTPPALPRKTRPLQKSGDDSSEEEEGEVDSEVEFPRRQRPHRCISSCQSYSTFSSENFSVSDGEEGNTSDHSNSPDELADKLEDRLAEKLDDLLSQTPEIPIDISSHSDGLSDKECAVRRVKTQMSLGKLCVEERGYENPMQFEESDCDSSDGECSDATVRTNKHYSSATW

In experiment [3] the target is T3, CSNK1G1 (Homo sapiens, UniProt Q9HCP0).
T3 construct: purchased Eurofins DiscoverX KINOMEscan
T3 sequence (Q9HCP0 whole entry): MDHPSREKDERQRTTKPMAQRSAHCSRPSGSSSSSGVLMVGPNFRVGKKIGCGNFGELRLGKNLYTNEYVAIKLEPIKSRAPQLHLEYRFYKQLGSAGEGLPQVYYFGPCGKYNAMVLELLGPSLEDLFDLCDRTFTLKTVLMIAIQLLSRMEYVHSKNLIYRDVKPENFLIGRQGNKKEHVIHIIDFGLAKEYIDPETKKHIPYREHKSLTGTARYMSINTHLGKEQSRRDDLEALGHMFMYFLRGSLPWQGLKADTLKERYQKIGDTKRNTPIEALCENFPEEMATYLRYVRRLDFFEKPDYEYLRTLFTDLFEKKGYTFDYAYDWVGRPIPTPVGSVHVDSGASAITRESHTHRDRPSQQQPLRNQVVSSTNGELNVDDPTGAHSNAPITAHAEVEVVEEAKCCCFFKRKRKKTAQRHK

For experiment [4], the target named is T4, ULK2 (Homo sapiens, UniProt Q8IYT8).
T4 construct: purchased Eurofins DiscoverX KINOMEscan
T4 sequence (Q8IYT8 1-1036): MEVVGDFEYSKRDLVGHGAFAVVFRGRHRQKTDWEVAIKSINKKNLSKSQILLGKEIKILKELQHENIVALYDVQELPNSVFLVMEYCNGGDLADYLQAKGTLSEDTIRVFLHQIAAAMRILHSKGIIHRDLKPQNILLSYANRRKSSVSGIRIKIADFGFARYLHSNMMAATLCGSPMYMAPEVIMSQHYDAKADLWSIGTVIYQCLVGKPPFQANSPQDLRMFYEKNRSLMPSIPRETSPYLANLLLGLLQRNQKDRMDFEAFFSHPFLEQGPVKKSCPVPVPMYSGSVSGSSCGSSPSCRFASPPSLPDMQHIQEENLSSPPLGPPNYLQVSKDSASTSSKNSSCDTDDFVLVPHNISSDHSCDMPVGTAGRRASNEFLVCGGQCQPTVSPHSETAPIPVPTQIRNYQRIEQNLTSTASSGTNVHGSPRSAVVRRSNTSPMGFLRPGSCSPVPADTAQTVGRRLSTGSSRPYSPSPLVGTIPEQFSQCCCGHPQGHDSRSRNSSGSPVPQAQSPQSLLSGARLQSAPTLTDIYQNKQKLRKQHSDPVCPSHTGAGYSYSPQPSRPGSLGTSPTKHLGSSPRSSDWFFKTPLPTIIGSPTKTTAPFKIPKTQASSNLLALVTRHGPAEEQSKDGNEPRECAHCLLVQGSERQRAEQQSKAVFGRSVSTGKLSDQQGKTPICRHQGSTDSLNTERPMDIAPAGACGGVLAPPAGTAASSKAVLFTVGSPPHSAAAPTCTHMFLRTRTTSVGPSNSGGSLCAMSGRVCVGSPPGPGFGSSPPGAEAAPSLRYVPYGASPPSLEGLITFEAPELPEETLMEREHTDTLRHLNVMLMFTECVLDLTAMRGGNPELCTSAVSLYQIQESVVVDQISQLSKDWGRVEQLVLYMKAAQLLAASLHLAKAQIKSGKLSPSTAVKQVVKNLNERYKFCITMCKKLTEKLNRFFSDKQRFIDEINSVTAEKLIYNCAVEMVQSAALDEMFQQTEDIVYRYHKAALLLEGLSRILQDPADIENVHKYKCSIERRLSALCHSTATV

In experiment [5] the target is T5, EPHA7 (Homo sapiens, UniProt Q15375).
T5 construct: purchased Eurofins DiscoverX KINOMEscan
T5 sequence (Q15375 28-998): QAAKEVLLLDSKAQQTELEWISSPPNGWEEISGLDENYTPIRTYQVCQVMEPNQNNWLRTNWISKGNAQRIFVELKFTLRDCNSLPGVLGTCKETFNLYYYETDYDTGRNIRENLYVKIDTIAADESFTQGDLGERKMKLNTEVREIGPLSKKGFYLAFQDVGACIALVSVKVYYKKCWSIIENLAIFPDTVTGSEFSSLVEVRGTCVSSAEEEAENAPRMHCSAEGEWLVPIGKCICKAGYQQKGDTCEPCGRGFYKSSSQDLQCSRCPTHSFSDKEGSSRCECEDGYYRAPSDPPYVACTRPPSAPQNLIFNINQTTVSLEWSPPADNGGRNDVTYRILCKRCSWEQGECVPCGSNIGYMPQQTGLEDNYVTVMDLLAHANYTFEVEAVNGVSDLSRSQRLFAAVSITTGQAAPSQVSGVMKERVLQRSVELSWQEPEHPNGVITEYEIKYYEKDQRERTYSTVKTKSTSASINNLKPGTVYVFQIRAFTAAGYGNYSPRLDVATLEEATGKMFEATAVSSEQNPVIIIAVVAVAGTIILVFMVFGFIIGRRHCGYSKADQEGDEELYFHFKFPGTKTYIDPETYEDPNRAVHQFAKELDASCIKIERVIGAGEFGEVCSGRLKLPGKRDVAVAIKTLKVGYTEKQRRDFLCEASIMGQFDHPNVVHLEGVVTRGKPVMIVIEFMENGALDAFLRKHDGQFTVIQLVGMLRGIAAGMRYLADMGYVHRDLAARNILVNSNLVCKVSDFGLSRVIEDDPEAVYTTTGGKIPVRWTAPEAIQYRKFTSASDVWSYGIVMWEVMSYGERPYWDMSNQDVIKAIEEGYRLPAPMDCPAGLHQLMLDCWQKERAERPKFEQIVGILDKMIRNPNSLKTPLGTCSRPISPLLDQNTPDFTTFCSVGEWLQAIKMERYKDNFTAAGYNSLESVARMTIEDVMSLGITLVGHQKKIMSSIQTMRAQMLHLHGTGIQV

For experiment [6], the target named is T6, PYK2 (Homo sapiens, UniProt Q14289).
T6 construct: purchased Eurofins DiscoverX KINOMEscan
T6 sequence (Q14289 whole entry): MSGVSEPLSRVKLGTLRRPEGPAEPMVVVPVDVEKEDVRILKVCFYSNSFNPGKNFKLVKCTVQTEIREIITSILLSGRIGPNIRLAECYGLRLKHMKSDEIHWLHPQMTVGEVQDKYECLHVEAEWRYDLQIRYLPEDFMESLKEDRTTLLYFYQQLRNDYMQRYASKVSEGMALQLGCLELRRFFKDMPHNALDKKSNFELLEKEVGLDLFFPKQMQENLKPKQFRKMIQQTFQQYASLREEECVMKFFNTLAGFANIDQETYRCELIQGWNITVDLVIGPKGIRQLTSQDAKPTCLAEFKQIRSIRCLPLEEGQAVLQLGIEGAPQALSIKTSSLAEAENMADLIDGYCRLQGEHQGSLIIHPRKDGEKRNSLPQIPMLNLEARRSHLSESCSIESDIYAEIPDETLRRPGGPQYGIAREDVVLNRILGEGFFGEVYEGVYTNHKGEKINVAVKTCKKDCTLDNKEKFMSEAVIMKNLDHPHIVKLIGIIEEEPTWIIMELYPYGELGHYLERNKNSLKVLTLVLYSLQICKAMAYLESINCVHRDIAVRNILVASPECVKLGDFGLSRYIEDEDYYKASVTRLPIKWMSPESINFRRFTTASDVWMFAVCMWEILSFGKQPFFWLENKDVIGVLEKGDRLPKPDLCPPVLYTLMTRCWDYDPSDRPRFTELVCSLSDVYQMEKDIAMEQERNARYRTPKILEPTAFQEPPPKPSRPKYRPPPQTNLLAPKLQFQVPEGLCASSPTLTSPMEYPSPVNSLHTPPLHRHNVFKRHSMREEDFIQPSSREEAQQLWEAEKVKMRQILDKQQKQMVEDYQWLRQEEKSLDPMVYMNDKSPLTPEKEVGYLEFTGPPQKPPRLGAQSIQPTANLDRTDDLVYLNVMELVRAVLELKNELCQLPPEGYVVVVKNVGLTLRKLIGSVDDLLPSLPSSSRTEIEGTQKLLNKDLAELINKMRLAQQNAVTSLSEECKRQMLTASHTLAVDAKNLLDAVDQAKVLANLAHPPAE

Experiment [7] deals with T7, RSK1(Kin.Dom.1-N-terminal) (Homo sapiens, UniProt Q15418).
T7 construct: RSK1(Kin.Dom.1-N-terminal); purchased Eurofins DiscoverX KINOMEscan
T7 sequence (Q15418 62-321 limits assumed): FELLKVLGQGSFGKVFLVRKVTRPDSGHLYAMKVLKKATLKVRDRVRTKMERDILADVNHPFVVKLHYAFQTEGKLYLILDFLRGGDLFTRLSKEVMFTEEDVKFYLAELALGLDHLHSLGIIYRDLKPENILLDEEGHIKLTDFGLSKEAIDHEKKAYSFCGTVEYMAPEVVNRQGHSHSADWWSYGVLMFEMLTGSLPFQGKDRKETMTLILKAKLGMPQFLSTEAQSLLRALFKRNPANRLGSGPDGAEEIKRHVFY

Molecules are shown by their SMILES.

T1 sequence (Q6DT37 whole entry): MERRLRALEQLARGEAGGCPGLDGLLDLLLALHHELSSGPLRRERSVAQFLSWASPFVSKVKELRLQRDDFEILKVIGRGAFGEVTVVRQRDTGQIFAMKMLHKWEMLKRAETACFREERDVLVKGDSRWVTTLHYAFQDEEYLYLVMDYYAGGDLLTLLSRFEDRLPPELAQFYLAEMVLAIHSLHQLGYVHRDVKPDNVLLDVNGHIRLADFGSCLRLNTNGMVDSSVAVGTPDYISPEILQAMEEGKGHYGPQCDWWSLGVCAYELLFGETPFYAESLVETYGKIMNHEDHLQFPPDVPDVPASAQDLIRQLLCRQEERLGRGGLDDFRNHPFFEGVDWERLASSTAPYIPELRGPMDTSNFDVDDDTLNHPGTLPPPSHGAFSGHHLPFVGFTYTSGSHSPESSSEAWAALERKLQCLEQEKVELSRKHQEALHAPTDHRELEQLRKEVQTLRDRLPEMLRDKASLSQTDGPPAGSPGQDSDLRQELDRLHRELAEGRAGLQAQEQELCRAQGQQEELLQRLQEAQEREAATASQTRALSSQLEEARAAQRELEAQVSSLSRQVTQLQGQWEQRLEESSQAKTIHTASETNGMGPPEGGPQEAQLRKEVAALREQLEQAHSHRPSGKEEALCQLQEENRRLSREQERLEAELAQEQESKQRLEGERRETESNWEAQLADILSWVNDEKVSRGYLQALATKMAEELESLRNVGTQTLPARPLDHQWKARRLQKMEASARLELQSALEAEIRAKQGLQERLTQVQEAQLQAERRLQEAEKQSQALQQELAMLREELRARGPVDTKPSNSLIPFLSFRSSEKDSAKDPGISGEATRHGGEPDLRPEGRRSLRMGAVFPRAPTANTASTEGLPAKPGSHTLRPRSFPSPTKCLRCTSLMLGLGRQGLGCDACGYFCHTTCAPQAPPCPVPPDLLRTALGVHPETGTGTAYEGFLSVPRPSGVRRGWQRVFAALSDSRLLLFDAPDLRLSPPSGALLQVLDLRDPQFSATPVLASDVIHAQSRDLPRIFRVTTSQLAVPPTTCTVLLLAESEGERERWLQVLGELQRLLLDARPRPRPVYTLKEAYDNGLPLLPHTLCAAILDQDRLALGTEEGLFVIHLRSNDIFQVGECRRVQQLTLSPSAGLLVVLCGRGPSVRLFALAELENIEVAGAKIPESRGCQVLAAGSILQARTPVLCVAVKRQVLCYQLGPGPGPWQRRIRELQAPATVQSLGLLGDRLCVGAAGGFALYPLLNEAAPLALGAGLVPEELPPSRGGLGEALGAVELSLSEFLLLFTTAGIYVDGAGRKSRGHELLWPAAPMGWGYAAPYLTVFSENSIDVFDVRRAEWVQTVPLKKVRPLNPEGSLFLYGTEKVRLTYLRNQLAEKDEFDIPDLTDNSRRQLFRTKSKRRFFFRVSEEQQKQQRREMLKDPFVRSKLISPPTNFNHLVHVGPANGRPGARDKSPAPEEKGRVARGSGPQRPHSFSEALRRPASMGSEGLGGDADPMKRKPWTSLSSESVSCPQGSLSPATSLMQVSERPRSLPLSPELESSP

`Clc1cc(NCC2CC2)c2ncc(-c3ccc4[nH]ncc4c3)n2n1` [compound 2, 6-Chloro-N-(cyclopropylmethyl)-3-(1H-indazol-5-yl)imidazo[1,2-b]pyridazin-8-amine]: the remaining binding at 1 µM was determined as 62% in experiment [1]; 100% in experiment [2]; 100% in experiment [3]; 98% in experiment [4]; 94% in experiment [5]; 84% in experiment [6]. Besides, the remaining binding at 1 µM in experiment [7] is 72%.

Take `O=C(CN1CCOCC1)N[C@H]1CC[C@H](Nc2cc(Cl)nn3c(-c4ccc5[nH]ncc5c4)cnc23)CC1` [compound 26]: the remaining binding at 1 µM in experiment [1] came out at 81%; in experiment [2], 100%; in experiment [3], 95%; in experiment [4], 94%; in experiment [5], 97%; in experiment [6], 86%. In experiment [7], the remaining binding at 1 µM worked out at 54%.

Turning to `CN1CCC(CNc2cc(Cl)nn3c(-c4cc5nc(Nc6ccccc6)[nH]c5cc4F)cnc23)CC1` [compound 31, 6-Chloro-3-(6-fluoro-2-(phenylamino)-1H-benzo[d]imidazol-5-yl)-N-((1-methylpiperidin-4-yl)methyl)imidazo[1,2-b]pyridazin-8-amine], the remaining binding at 1 µM was 100% in experiment [1]; 98% in experiment [2]; 100% in experiment [3]; 83% in experiment [4]; 94% in experiment [5]; 99% in experiment [6]. Besides, the remaining binding at 1 µM in experiment [7] was 100%.

These data come from publication PMC6437697 (Journal of Medicinal Chemistry, 2019).
